Data from article PMC12250302, “Synthesis, Antimicrobial Activities, and Model of Action of Novel Tetralone Derivatives Containing Aminoguanidinium Moiety” (International Journal of Molecular Sciences, 2025).
Values after ≈ are worked out from the molar mass of the structure shown.

Columns and labels:
Assay in all cases: MIC and MBC testing, broth microdilution
S. aureus ATCC 29213 = type: cell-based, Staphylococcus aureus; conditions: Staphylococcus aureus, ATCC29213, S. aureus ATCC 29213; for MIC: 18 h, read-out: MIC; for MBC: read-out: MBC
From the text: (§1) The minimum inhibitory concentrations (MICs) and minimum bactericidal concentrations (MBCs) of the synthesized compounds effective against ESKAPE strains, S. aureus clinical isolates, and MRSA were investigated by the broth dilution method. Levofloxacin is a broad-spectrum antibacterial agent that is widely used in the treatment of ESKAPE infections. Therefore, levofloxacin was selected as the positive control for the preliminary activity screening. DMSO (0.1%) was selected as the negative control.
(§2) The minimum inhibitory concentration (MIC) of all synthesized compounds was tested by the broth microdilution method. In brief, compounds dissolved in DMSO were diluted twice continuously in a 96-well plate with MH broth. The ESKAPE pathogens (E. coli ATCC 25922, S. aureus ATCC 29213, K. pneumoniae ATCC 700603, A. baumannii ATCC 19606, P. aeruginosa ATCC 27853, and E. faecium ATCC 35667), clinical S. aureus isolates (LMY45, LMY46, LMY47, and LMY48) and methicillin-resistant Staphylococcus aureus (MRSA-1 and MRSA-2) were cultured in MH broth to logarithmic growth phase and then diluted to 1 × 10^6 CFU/mL in MH broth. Subsequently, the diluted bacterial solution was mixed with the diluted compound solution in a 96-well plate and incubated at 37 °C for a duration of 18 h. The MIC of the compounds was recorded as the lowest concentration at which no visible growth was observed. […] Each concentration was replicated thrice.

E. faecium ATCC 35667 = type: cell-based, Enterococcus faecium; conditions: Enterococcus faecium, ATCC35667, E. faecium ATCC 35667; for MIC: 18 h, read-out: MIC; for MBC: read-out: MBC
From the text: as §1, §2

[1] = tested on: clinical S. aureus isolate LMY47; type: cell-based, Staphylococcus aureus; conditions: Staphylococcus aureus, LMY47; for MIC: 18 h, read-out: MIC; for MBC: read-out: MBC
Description: (§3) Furthermore, the MBC values of the compounds were detected.
as §2, with “h.” for “h. The MIC of the compounds was recorded as the lowest concentration at which no visible growth was observed.”

[2] = tested on: clinical S. aureus isolate LMY45; type: cell-based, Staphylococcus aureus; conditions: Staphylococcus aureus, LMY45; for MIC: 18 h, read-out: MIC; for MBC: read-out: MBC
Description: as §3
as §2, with “h.” for “h. The MIC of the compounds was recorded as the lowest concentration at which no visible growth was observed.”

MRSA-2 = type: cell-based, Staphylococcus aureus; conditions: Staphylococcus aureus, MRSA-2; for MIC: 18 h, read-out: MIC; for MBC: read-out: MBC
Description: as §3
as §2, with “h.” for “h. The MIC of the compounds was recorded as the lowest concentration at which no visible growth was observed.”

[3] = tested on: clinical S. aureus isolate LMY46; type: cell-based, Staphylococcus aureus; conditions: Staphylococcus aureus, LMY46; for MIC: 18 h, read-out: MIC; for MBC: read-out: MBC
Description: as §3
as §2, with “h.” for “h. The MIC of the compounds was recorded as the lowest concentration at which no visible growth was observed.”

MRSA-1 = type: cell-based, Staphylococcus aureus; conditions: Staphylococcus aureus, MRSA-1; for MIC: 18 h, read-out: MIC; for MBC: read-out: MBC
Description: as §3
as §2, with “h.” for “h. The MIC of the compounds was recorded as the lowest concentration at which no visible growth was observed.”

[4] = tested on: clinical S. aureus isolate LMY48; type: cell-based, Staphylococcus aureus; conditions: Staphylococcus aureus, LMY48; for MIC: 18 h, read-out: MIC; for MBC: read-out: MBC
Description: as §3
as §2, with “h.” for “h. The MIC of the compounds was recorded as the lowest concentration at which no visible growth was observed.”

P. aeruginosa ATCC 27853 = type: cell-based, Pseudomonas aeruginosa; conditions: Pseudomonas aeruginosa; for MIC: ATCC27853, 18 h, read-out: MIC; for MBC: ATCC27853, read-out: MBC
From the text: as §1, §2

A. baumannii ATCC 19606 = type: cell-based, Acinetobacter baumannii; conditions: Acinetobacter baumannii; for MIC: ATCC19606, 18 h, read-out: MIC; for MBC: ATCC19606, read-out: MBC
From the text: as §1, §2

E. coli ATCC 25922 = type: cell-based, Escherichia coli; conditions: Escherichia coli; for MIC: ATCC25922, 18 h, read-out: MIC; for MBC: ATCC25922, read-out: MBC
From the text: as §1, §2

[5] = tested on: K. pneumoniae ATCC 700603; type: cell-based, Klebsiella pneumoniae; conditions: Klebsiella pneumoniae; for MIC: ATCC700603, 18 h, read-out: MIC; for MBC: ATCC700603, read-out: MBC
From the text: as §1, §2

| Compound | MIC (S. aureus ATCC 29213) | MBC (S. aureus ATCC 29213) | MIC (E. faecium ATCC 35667) | MBC (E. faecium ATCC 35667) | MIC [1] | MBC [1] | MIC [2] | MBC [2] | MIC (MRSA-2) | MBC (MRSA-2) | MIC [3] | MBC [3] | MIC (MRSA-1) | MBC (MRSA-1) | MIC [4] | MBC [4] | MIC (P. aeruginosa ATCC 27853) | MBC (P. aeruginosa ATCC 27853) | MIC (A. baumannii ATCC 19606) | MBC (A. baumannii ATCC 19606) | further results |
| --- | --- | --- | --- | --- | --- | --- | --- | --- | --- | --- | --- | --- | --- | --- | --- | --- | --- | --- | --- | --- | --- |
| [H]/N=C(\N)NN=C1CCCc2cc(OCc3ccccc3F)ccc21 [Compound 1A, (E)-2-(6-((2-fluorobenzyl)oxy)-3,4-dihydronaphthalen-1(2H)-ylidene)hydrazine-1-carboximidamide] | 4 µg/mL (≈ 12.3 µM) | 16 µg/mL (≈ 49 µM) | 4 µg/mL (≈ 12.3 µM) | 16 µg/mL (≈ 49 µM) | 2 µg/mL (≈ 6.13 µM) | 8 µg/mL (≈ 24.5 µM) | 2 µg/mL (≈ 6.13 µM) | 4 µg/mL (≈ 12.3 µM) | 2 µg/mL (≈ 6.13 µM) | 8 µg/mL (≈ 24.5 µM) | 2 µg/mL (≈ 6.13 µM) | 8 µg/mL (≈ 24.5 µM) | 2 µg/mL (≈ 6.13 µM) | 16 µg/mL (≈ 49 µM) | 2 µg/mL (≈ 6.13 µM) | 4 µg/mL (≈ 12.3 µM) | 32 µg/mL (≈ 98 µM) | > 32 µg/mL | 8 µg/mL (≈ 24.5 µM) | 16 µg/mL (≈ 49 µM) | MIC (E. coli ATCC 25922): 8 µg/mL (≈ 24.5 µM); MBC (E. coli ATCC 25922): 8 µg/mL (≈ 24.5 µM); MIC [5]: 16 µg/mL (≈ 49 µM); MBC [5]: 16 µg/mL (≈ 49 µM) |
| [H]/N=C(\N)NN=C1CCCc2cc(OCc3cccc(F)c3)ccc21 [Compound 1B, (E)-2-(6-((3-fluorobenzyl)oxy)-3,4-dihydronaphthalen-1(2H)-ylidene)hydrazine-1-carboximidamide] | 4 µg/mL (≈ 12.3 µM) | 16 µg/mL (≈ 49 µM) | 4 µg/mL (≈ 12.3 µM) | 16 µg/mL (≈ 49 µM) | 2 µg/mL (≈ 6.13 µM) | 8 µg/mL (≈ 24.5 µM) | 2 µg/mL (≈ 6.13 µM) | 4 µg/mL (≈ 12.3 µM) | 2 µg/mL (≈ 6.13 µM) | 8 µg/mL (≈ 24.5 µM) | 2 µg/mL (≈ 6.13 µM) | 16 µg/mL (≈ 49 µM) | 2 µg/mL (≈ 6.13 µM) | 8 µg/mL (≈ 24.5 µM) | 4 µg/mL (≈ 12.3 µM) | 4 µg/mL (≈ 12.3 µM) | 32 µg/mL (≈ 98 µM) | 32 µg/mL (≈ 98 µM) | 8 µg/mL (≈ 24.5 µM) | 16 µg/mL (≈ 49 µM) | MIC (E. coli ATCC 25922): 8 µg/mL (≈ 24.5 µM); MBC (E. coli ATCC 25922): 8 µg/mL (≈ 24.5 µM); MIC [5]: 16 µg/mL (≈ 49 µM); MBC [5]: 16 µg/mL (≈ 49 µM) |
| [H]/N=C(\N)NN=C1CCCc2cc(OCc3ccc(F)cc3)ccc21 [Compound 1C, (E)-2-(6-((4-fluorobenzyl)oxy)-3,4-dihydronaphthalen-1(2H)-ylidene)hydrazine-1-carboximidamide] | 4 µg/mL (≈ 12.3 µM) | 16 µg/mL (≈ 49 µM) | 4 µg/mL (≈ 12.3 µM) | 16 µg/mL (≈ 49 µM) | 2 µg/mL (≈ 6.13 µM) | 8 µg/mL (≈ 24.5 µM) | 2 µg/mL (≈ 6.13 µM) | 4 µg/mL (≈ 12.3 µM) | 4 µg/mL (≈ 12.3 µM) | 8 µg/mL (≈ 24.5 µM) | 2 µg/mL (≈ 6.13 µM) | 8 µg/mL (≈ 24.5 µM) | 2 µg/mL (≈ 6.13 µM) | 16 µg/mL (≈ 49 µM) | 4 µg/mL (≈ 12.3 µM) | 4 µg/mL (≈ 12.3 µM) | 32 µg/mL (≈ 98 µM) | 32 µg/mL (≈ 98 µM) | 8 µg/mL (≈ 24.5 µM) | 8 µg/mL (≈ 24.5 µM) | MIC (E. coli ATCC 25922): 8 µg/mL (≈ 24.5 µM); MBC (E. coli ATCC 25922): 8 µg/mL (≈ 24.5 µM); MIC [5]: 16 µg/mL (≈ 49 µM); MBC [5]: 16 µg/mL (≈ 49 µM) |
| [H]/N=C(\N)NN=C1CCCc2cc(OCc3ccc(F)cc3F)ccc21 [Compound 1D, (E)-2-(6-((2,4-difluorobenzyl)oxy)-3,4-dihydronaphthalen-1(2H)-ylidene)hydrazine-1-carboximidamide] | 2 µg/mL (≈ 5.81 µM) | 8 µg/mL (≈ 23.2 µM) | 4 µg/mL (≈ 11.6 µM) | 16 µg/mL (≈ 46.5 µM) | 2 µg/mL (≈ 5.81 µM) | 8 µg/mL (≈ 23.2 µM) | 2 µg/mL (≈ 5.81 µM) | 4 µg/mL (≈ 11.6 µM) | 2 µg/mL (≈ 5.81 µM) | 32 µg/mL (≈ 92.9 µM) | 4 µg/mL (≈ 11.6 µM) | 32 µg/mL (≈ 92.9 µM) | 2 µg/mL (≈ 5.81 µM) | 32 µg/mL (≈ 92.9 µM) | 2 µg/mL (≈ 5.81 µM) | 4 µg/mL (≈ 11.6 µM) | 32 µg/mL (≈ 92.9 µM) | 32 µg/mL (≈ 92.9 µM) | 8 µg/mL (≈ 23.2 µM) | 8 µg/mL (≈ 23.2 µM) | MIC (E. coli ATCC 25922): 8 µg/mL (≈ 23.2 µM); MBC (E. coli ATCC 25922): 8 µg/mL (≈ 23.2 µM); MIC [5]: 16 µg/mL (≈ 46.5 µM); MBC [5]: 16 µg/mL (≈ 46.5 µM) |
